Experimental data reported in ChEMBL document CHEMBL3046894, “Synthesis and Herbicidal Activity of Pyrimidinyl Salicylic and Thiosalicylic Acids” (J Pestic Sci, 1996).
Activity calls are given as the source filed them. No cut-off for these calls is given here.

Experiments:
Assay type in all cases: functional, organism-based
[1] = test system: Chenopodium album; assay: Pre-emergence herbicidal activity against Chenopodium album assessed as growth inhibition at 25 g a.i/10 a
[2] = test system: Persicaria nodosa; assay: Pre-emergence herbicidal activity against Persicaria nodosa assessed as growth inhibition at 25 g a.i/10 a
[3] = test system: Amaranthus retroflexus; assay: Post-emergence herbicidal activity against Amaranthus retroflexus assessed as growth inhibition at 25 g a.i/10 a applied 11 days after germination as foliar spray
[4] = test system: Persicaria nodosa; assay: Post-emergence herbicidal activity against Persicaria nodosa assessed as growth inhibition at 25 g a.i/10 a applied 11 days after germination as foliar spray
[5] = test system: Digitaria sanguinalis; assay: Pre-emergence herbicidal activity against Digitaria sanguinalis (hairy crabgrass) assessed as growth inhibition at 25 g a.i/10 a
[6] = test system: Digitaria sanguinalis; assay: Post-emergence herbicidal activity against Digitaria sanguinalis (hairy crabgrass) assessed as growth inhibition at 25 g a.i/10 a applied 11 days after germination as foliar spray
[7] = test system: Cyperus iria; assay: Post-emergence herbicidal activity against Cyperus iria assessed as growth inhibition at 25 g a.i/10 a applied 11 days after germination as foliar spray
[8] = test system: Cyperus iria; assay: Pre-emergence herbicidal activity against Cyperus iria assessed as growth inhibition at 25 g a.i/10 a
[9] = test system: Amaranthus retroflexus; assay: Pre-emergence herbicidal activity against Amaranthus retroflexus assessed as growth inhibition at 25 g a.i/10 a
[10] = test system: Echinochloa crus-galli; assay: Post-emergence herbicidal activity against Echinochloa crus-galli (barnyard grass) assessed as growth inhibition at 25 g a.i/10 a applied 11 days after germination as foliar spray
[11] = test system: Echinochloa crus-galli; assay: Pre-emergence herbicidal activity against Echinochloa crus-galli (barnyard grass) assessed as growth inhibition at 25 g a.i/10 a
[12] = test system: Chenopodium album; assay: Post-emergence herbicidal activity against Chenopodium album assessed as growth inhibition at 25 g a.i/10 a applied 11 days after germination as foliar spray

Structure (SMILES)	growth inhibition (GI) [1]	growth inhibition (GI) [2]	growth inhibition (GI) [3]	growth inhibition (GI) [4]	growth inhibition (GI) [5]	growth inhibition (GI) [6]	growth inhibition (GI) [7]	growth inhibition (GI) [8]	growth inhibition (GI) [9]	growth inhibition (GI) [10]	growth inhibition (GI) [11]	growth inhibition (GI) [12]
COc1cc(OC)nc(Oc2ccc(C)cc2C(=O)O)n1	Active	inactive	Active	Active	inactive	inactive	inactive	Active	Active	Active	inactive	inactive
COc1cc(OC)nc(Oc2ccc(F)cc2C(=O)O)n1	Active	Active	Active	Active	Active	inactive	Active	Active	Active	Active	Active	Active
COc1ccc(Oc2nc(OC)cc(OC)n2)c(C(=O)O)c1	Active	Active	Active	Active	Active	Active	Active	Active	Active	Active	Active	inactive
COc1cc(OC)nc(Oc2c(Cl)cccc2C(=O)O)n1			Active	Active		inactive	Active			inactive		inactive
COc1cc(OC)nc(Nc2cccc(Cl)c2C(=O)O)n1	inactive	inactive	Active	inactive	inactive	inactive	inactive	inactive	inactive	inactive	inactive	inactive
COc1cc(OC)nc(Cc2cccc(Cl)c2C(=O)O)n1	Active	Active	Active	Active	Active	Active	Active	Active	Active	Active	Active	Active
COc1cc(OC)nc([S+]([O-])c2cccc(Cl)c2C(=O)O)n1 (configuration not stated)	Active	inactive	Active	Active	Active	inactive	Active	Active	Active	Active	inactive	Active
CCCOc1cccc(Oc2nc(OC)cc(OC)n2)c1C(=O)O	Active	Active	Active	Active	Active	Active	Active	Active	Active	Active	Active	Active
CCCc1cccc(Oc2nc(OC)cc(OC)n2)c1C(=O)O	Active	Active	Active	Active	Active	Active	Active	Active	Active	Active	Active	Active
